Experiment [1] has as its system extracellular 5-HT and DA in the NAc. The experiment in a line: In vivo microdialysis in the NAc of freely moving mice. The method, then:
(§1) All in vivo experiments were performed in adult mice (>6 weeks old). For the photometry and microdialysis experiments, which were carried out in Florida, male C57BL/6J mice from The Jackson Laboratory (Bar Harbor, ME, USA) were group-housed in polycarbonate cages (GM500, Tecniplast, Buguggiate, Italy) with lights on from 7 a.m. to 7 p.m. Food and water were provided ad libitum. Photometry and microdialysis experiments were performed in accordance with a protocol approved by the Institutional Animal Care and Use Committee at Florida Atlantic University. For the behavioral experiments, which were carried out in Vienna, C57BL/6N mice from Charles River (Sulzfeld, Germany) were group-housed in polycarbonate cages with lights on from 7 a.m. to 7 p.m. Food and water were provided ad libitum. Behavioral experiments were performed in accordance with a protocol approved by the Austrian national ethical committee on animal care and use (Bundesministerium für Wissenschaft und Forschung: BMWFW-66.009/0016-WF/V/3b/2015). All animal procedures were conducted in agreement with the ARRIVE guidelines and the U.K. Animal (Scientific Procedures) Act, 1986, and associated guidelines, EU Directive 2010/63/EU for animal experiments. Mice were given at least 1 week to acclimate before being used in any experiments.
Mice were anesthetized with isoflurane (5% induction, 2% maintenance) and placed into a stereotaxic frame (Kopf Instruments, Tujunga, CA, USA) oriented in the flat skull position. Ophthalmic ointment was applied to prevent drying of the eyes. Ketoprofen (10 mg kg^−1) was administered subcutaneously (s.c.), whereas bupivacaine and lidocaine were administered locally (s.c.; 100 µl of sterile saline containing 0.05% bupivacaine and 0.2% lidocaine) to the surgical site atop the head. A midline incision was made through the skin on the dorsal surface of the head to expose the skull. Fascia was removed, coordinates for the NAc were determined relative to bregma: anterior/posterior = 1.54 mm; medial/lateral = 0.7 mm; dorsal/ventral = −4.1 mm. A 1 mm burr hole was drilled through the skull. […]
Microdialysis was performed based on a previous publication. […] Dialysate samples were collected on ice and stored at −80 °C until they were analyzed using high-performance liquid chromatography with electrochemical detection. Drug-induced changes in extracellular DA and 5-HT were expressed as fold change compared to basal monoamine levels obtained during the first three pretreatment samples.

Experiment [2] has as its system C57BL/6N mice. As to the kind of experiment: Open-field test. The format is in vivo. The following applies: indicated doses (1, 5 and 10 mg kg-1) intraperitoneal, 1 h. The method, then:
as §1
(§2) For behavioral assays, animals were assigned to treatment groups and injected with test drugs by an unblinded observer.
Mice were placed into an open field arena (27.3 × 27.3 × 27.3 cm) surrounded by infrared beams to track movements. The total distance traveled over 1 h was recorded using Activity Monitor (Med Associates Inc., St. Albans, VT, USA) and interpreted as a measure of the psychostimulant effects. Animal sample size was confirmed using a post hoc analysis of the achieved power using G*Power3.1 [29]. Using a significance level (α) of 0.05 and an effect size f = 1.92 and a sample size of 7.5 animals (5–10)/group we achieved the commonly accepted statistical power (1−β) of 0.8.

Experiment [3] relates to extracellular 5-HT in the NAc. The experiment in a line: Fiber photometry with GRAB5-HT sensor in the NAc of freely moving mice. The format is in vivo. The following applies: for relative GRAB5-HT fluorescence at peak versus saline: t = 700-900 s post injection, drug alone, D-FEN 10, S-4-MC 5, S-4-TFMMC 10 mg kg-1 intraperitoneal. The method, then:
as §1
Mice were anesthetized with isoflurane (5% induction, 2% maintenance) and placed into a stereotaxic frame (Kopf Instruments, Tujunga, CA, USA) oriented in the flat skull position. Ophthalmic ointment was applied to prevent drying of the eyes. Ketoprofen (10 mg kg^−1) was administered subcutaneously (s.c.), whereas bupivacaine and lidocaine were administered locally (s.c.; 100 µl of sterile saline containing 0.05% bupivacaine and 0.2% lidocaine) to the surgical site atop the head. A midline incision was made through the skin on the dorsal surface of the head to expose the skull. Fascia was removed, coordinates for the NAc were determined relative to bregma: anterior/posterior = 1.54 mm; medial/lateral = 0.7 mm; dorsal/ventral = −4.1 mm. A 1 mm burr hole was drilled through the skull. […] For the mice used for fiber photometry, 4*10^12 genome copies of AAV9-hSyn-5-HT2h or 10^10 genome copies of AAV-hSyn-DA2m were delivered into the NAc at an infusion rate of 100 nl min^−1 (total volume of 1 µl) using a 34-gauge needle attached to a 10 µl Nanofil microsyringe (Hamilton, Reno, NV, USA), as previously described. Following injection of the virus, an optical fiber was lowered through the burr hole and secured with glass ionomer cement. Three 1.6 mm screws (00-96X1/16 39052, Plastics One Inc., Roanoke, VA, USA) were affixed to the skull to support a cement stage that was created to secure the implanted guide cannulae or optical fiber. Mice were singly housed following surgery and allowed 6 days of recovery for the microdialysis experiments or 21 days for the photometry experiments. Food and water were available ad libitum.
To monitor light emitted from the G-protein coupled receptor-activation-based 5-HT (GRAB5-HT) and DA (GRABDA) sensors, fiber photometry was performed as described. Briefly, a light emitting diode (465 nm) (CLED_465, Doric Lenses, Quebec, QC, Canada), reflected through a dichroic mirror, was coupled to an optical fiber (200 µm core/225 cladding diameter; Thorlabs, Newton, NJ, USA) that was glued to a metal ferrule (Doric Lenses, Quebec, QC, Canada) and implanted into the NAc as described above. Emitted, band-pass filtered light (500–550 nm, FMC6, Doric Lenses, Quebec,QC, Canada) was detected with a photodetector (Newport Femtowatt silicone PIN; New Focus, San Jose, CA, USA). Data were recorded using a RZ5P lock-in amplifier (Tucker-Davis Technologies, Alachua, FL, USA) controlled with Synapse software. Sinusoidal excitation was delivered at 210 Hz by an LED driver Doric Lenses, LEDD_4) at low power mode. A demodulated signal was low-pass filtered at 6 Hz and digitized at 1017 Hz. […]

Experiment [4] concerns C57BL/6N mice. As to the kind of experiment: Forced-swim test (FST). The format is in vivo. To be noted: for immobility time in the FST versus vehicle: mice. The method, then:
as §1, §2
The FST was performed as previously described. In brief, mice were placed for 6 min in a beaker (diameter: 19 cm, height: 23 cm), halfway filled with water (22–23 °C), and the immobility time was quantified using the software Videotrack (Viewpoint, Champagne au Mont d’Or, France). Immobility was defined as the absence of any movement, except for those required to keep the head above the water. The time spent immobile during the final 4 min of the test was used as a measure of behavioral despair. Animal sample size was confirmed using a post hoc analysis of the achieved power using G*Power3.1 [29]. Using a significance level (α) of 0.05 and an effect size f = 2.5 and a sample size of 6 animals/group we achieved the commonly accepted statistical power (1−β) of 0.8.

The mark [5] stands for this setting: 5 mg kg-1 with or without fluoxetine 10 mg kg-1, repeated measures two-way ANOVA.

Consider `CN[C@@H](C)C(=O)c1ccc(C(F)(F)F)cc1` [S-4-TFMMC, 4-trifluoromethyl-N-methylcathinone], for which the “dialysate 5-HT with co-administered fluoxetine” value in experiment [1] (10 mg kg-1 intraperitoneal plus fluoxetine 10 mg kg-1) is given as “fluoxetine markedly blunted the amount of dialysate 5-HT”. Also, the “horizontal locomotor activity (total distance traveled) in the open field test” value in the experiment on C57BL/6N mice [2] is given as “did not differ from vehicle”. Besides, the “extracellular 5-HT in the NAc (GRAB5-HT fluorescence)” value in experiment [3] (10 mg kg-1 intraperitoneal) is reported as “elevated extracellular 5-HT in the NAc in a time-dependent manner”. For the same compound, in experiment [3] (10 mg kg-1 plus fluoxetine 10 mg kg-1 intraperitoneal), the “extracellular 5-HT in the NAc (GRAB5-HT fluorescence) with co-administered fluoxetine” value is listed as “this effect could be prevented by fluoxetine”. In addition, the “relative GRAB5-HT fluorescence at peak versus saline” value in experiment [3] is “Significant effects”. In addition, in the experiment on C57BL/6N mice [4] (10 mg kg-1 intraperitoneal), the “time spent immobile in the FST, male and female mice” value is “significantly reduced the time spent immobile regardless of sex”; the “immobility time in the FST versus vehicle” value is recorded as “significantly differed from the vehicle group”.

Turning to `Cc1ccc(C(=O)[C@H](C)N)cc1` [S-4-MC, 4-methylcathinone], the “dialysate 5-HT versus baseline” value in experiment [1] (5 mg kg-1 intraperitoneal, NAc) is on record as “significantly elevated 5-HT in the dialysate”. In experiment [1] (setting [5]), the “effect of drug treatment (alone versus plus fluoxetine) on dialysate 5-HT” value was “drug-treatment significantly affected 5-HT in the dialysate” and the “effect of drug treatment (alone versus plus fluoxetine) on dialysate DA” value is recorded as “but not DA”. Moreover, the “horizontal locomotor activity (total distance traveled) in the open field test” value with C57BL/6N mice [2] is “did not differ from vehicle”. In addition, the “extracellular 5-HT in the NAc (GRAB5-HT fluorescence)” value in experiment [3] (5 mg kg-1 intraperitoneal) is reported as “elevated extracellular 5-HT in the NAc in a time-dependent manner”. The “5-HT sensor response on day 1 versus day 2” value in experiment [3] (5 mg kg-1 intraperitoneal, two doses 24 h apart) is “no significant difference”. Besides, the “extracellular 5-HT in the NAc (GRAB5-HT fluorescence) with co-administered fluoxetine” value in experiment [3] (5 mg kg-1 plus fluoxetine 10 mg kg-1 intraperitoneal) was “this effect could be prevented by fluoxetine”. Also, the “relative GRAB5-HT fluorescence at peak versus saline” value in experiment [3] is recorded as “Significant effects”. Besides, the “immobility time in the FST versus vehicle” value with C57BL/6N mice [4] (1 mg kg-1 intraperitoneal) is given as “significantly reduced immobility time versus vehicle”. Moreover, in the experiment with C57BL/6N mice [4] (5 mg kg-1 intraperitoneal), the “time spent immobile in the FST, male and female mice” value is given as “significantly reduced the time spent immobile regardless of sex”; the “immobility time in the FST versus vehicle” value is on record as “significantly reduced immobility time versus vehicle”. Further, in the experiment on C57BL/6N mice [4] (10 mg kg-1 intraperitoneal), the “immobility time in the FST versus vehicle” value is listed as “significantly reduced immobility time versus vehicle”.
